The structures appear in SMILES notation. pIC50: −log10 of the molar value.

The values that follow come from patent US8765814B2, “N-hydroxyformamide derivative and medicament containing same” (Kaken Pharmaceutical Co., Ltd., priority 2010, dated 2014).

One assay concerns the target T1, ADAM17 (Homo sapiens, UniProt P78536).
T1 construct: made in house; host or cells: mammal cells or insect cells (not specified which)
Put plainly: ADAM17 inhibition test. It is filed as biochemical. The note with it: recombinant ADAM17 (cDNA from THP-1 cells), fluorescent synthetic substrate Nma-[…]Dnp-D-Arg-NH2, 37° C., 1.5 hours; read-out: IC50 Value (50% inhibitory concentration against ADAM17). From the text:
The nucleotide sequence of ADAM17 was reported by Moss et al. (Moss, M. L. et al., Nature 1997, 385, 733-736). Accordingly, the cDNA was obtained from THP-1 cells of a human monocytic cell line in the usual way, and this was inserted into an expression vector, and thereafter the vector was transformed in mammal cells or insect cells to thereby make the cells express ADAM17.
In the ADAM17 inhibition test, ADAM17 obtained in the manner as above was used as an enzyme, and a fluorescent synthetic substrate Nma (N-methylanthranylic acid)-[…]Dnp (dinitrophenyl)-D-Arg-NH2 containing the ADAM17-cleaved sequence of a membrane-bound TNF was used as the substrate. Using these in the test, the ADAM17 activity in the presence or absence of the test substance was measured. The method of ADAM17 inhibition test is mentioned below.
(§1) Concretely, 90 μl of an enzyme liquid as prepared to have 14 units in an assay buffer A (50 mM tris-hydrochloride buffer (pH 7.5) containing 200 mM sodium chloride, 5 mM calcium chloride, 10 μM zinc sulfate, 0.004% sodium azide, and 2 mg/mL bovine serum albumin) (the amount of enzyme capable of decomposing 1 pmol of substrate at 25° C. for 1 minute was defined to be 1 unit), and 90 μL a fluorescent synthetic substrate as prepared to be 20 μM in an assay buffer B (50 mM tris-hydrochloride buffer (pH 7.5) containing 200 mM sodium chloride, 5 mM calcium chloride, 10 μM zinc sulfate, 0.004% sodium azide, and 0.05% PLURONIC F-68) were mixed, and reacted at 37° C. for 1.5 hours. Subsequently, using a fluorescent intensity meter (Fluoroskan Ascent), the reaction liquid was analyzed at an excitation wavelength of 355 nm and at a measuring wavelength of 460 nm to determine the enzymatic activity therein.
(§2) From the enzymatic activity in the presence or absence of the test compound, the inhibitory percentage was determined, and the 50% inhibitory concentration (IC50) of the test compound was calculated.
The 50% inhibitory concentration against ADAM17 of the N-hydroxyformamide derivative of the invention, as determined in this test, was shown in Table 1.

The next assay deals with T2, ADAM10 (Homo sapiens, UniProt O14672).
T2 construct: made in house; host or cells: mammal cells or insect cells (not specified which)
T2 sequence (O14672 214-748): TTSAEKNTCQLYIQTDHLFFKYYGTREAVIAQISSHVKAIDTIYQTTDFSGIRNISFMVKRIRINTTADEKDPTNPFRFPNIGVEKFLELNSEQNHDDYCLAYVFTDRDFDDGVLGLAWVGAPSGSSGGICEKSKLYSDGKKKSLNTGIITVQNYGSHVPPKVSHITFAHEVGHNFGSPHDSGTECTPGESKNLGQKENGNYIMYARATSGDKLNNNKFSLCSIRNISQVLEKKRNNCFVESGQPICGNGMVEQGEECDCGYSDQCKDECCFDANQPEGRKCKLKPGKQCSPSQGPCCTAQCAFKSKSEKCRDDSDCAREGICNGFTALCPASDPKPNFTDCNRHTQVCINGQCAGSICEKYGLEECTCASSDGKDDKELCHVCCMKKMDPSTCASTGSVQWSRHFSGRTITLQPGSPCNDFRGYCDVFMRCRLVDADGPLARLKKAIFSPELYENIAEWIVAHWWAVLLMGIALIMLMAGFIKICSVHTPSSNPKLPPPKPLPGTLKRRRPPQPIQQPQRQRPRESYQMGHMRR
Put plainly: ADAM10 inhibition test. It is filed as biochemical. The note with it: recombinant ADAM10 (cDNA from THP-1 cells), fluorescent synthetic substrate Nma-[…]Dnp-D-Arg-NH2, 25° C., 5 hours; read-out: IC50 Value (50% inhibitory concentration against ADAM10).
Text: The cDNA of ADAM10 was obtained from THP-1 cells in the usual way, and this was inserted into an expression vector, and thereafter the vector was transformed in mammal cells or insect cells to thereby make the cells express ADAM10. In the ADAM10 inhibition test, ADAM10 obtained in the manner as above was used as an enzyme, and a fluorescent synthetic substrate Nma (N-methylanthranylic acid)-[…]Dnp (dinitrophenyl)-D-Arg-NH2 was used as the substrate. Using these in the test, the ADAM10 activity in the presence or absence of the test substance was measured. The method of ADAM10 inhibition test is mentioned below.
as §1, with “liquid” for “liquid as”, “using” for “to have 14 units in”, “albumin),” for “albumin) (the amount of enzyme capable of decomposing 1 pmol of substrate at 25° C. for 1 minute was defined to be 1 unit),”, “25°” for “37°”, “5” for “1.5”
as §2
The 50% inhibitory concentration against ADAM10 of the N-hydroxyformamide derivative of the invention, as determined in this test, was shown in Table 2.

T1 sequence (P78536 215-824): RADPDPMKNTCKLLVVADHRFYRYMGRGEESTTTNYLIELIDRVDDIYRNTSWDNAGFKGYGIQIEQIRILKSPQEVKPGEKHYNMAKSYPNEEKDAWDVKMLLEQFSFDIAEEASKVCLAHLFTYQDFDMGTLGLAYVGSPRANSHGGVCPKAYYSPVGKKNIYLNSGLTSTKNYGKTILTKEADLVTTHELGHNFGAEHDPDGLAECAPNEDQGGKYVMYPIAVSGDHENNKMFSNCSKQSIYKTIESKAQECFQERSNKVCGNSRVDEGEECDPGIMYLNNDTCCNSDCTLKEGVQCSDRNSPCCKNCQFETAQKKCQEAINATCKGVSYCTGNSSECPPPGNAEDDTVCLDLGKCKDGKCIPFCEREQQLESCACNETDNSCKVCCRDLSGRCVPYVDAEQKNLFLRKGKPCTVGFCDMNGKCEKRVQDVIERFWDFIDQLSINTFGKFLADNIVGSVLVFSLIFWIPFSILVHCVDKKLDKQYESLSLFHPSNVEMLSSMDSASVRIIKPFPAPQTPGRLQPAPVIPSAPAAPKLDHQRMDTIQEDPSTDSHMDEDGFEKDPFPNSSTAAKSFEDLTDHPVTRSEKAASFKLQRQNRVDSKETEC

`CC#CCOc1ccc(S(=O)(=O)CC(c2ccc(CN(C)C)cc2)N(O)C=O)cc1` (centres unmarked) [Compound I-2, N-[2-(4-But-2-ynyloxybenzenesulfonyl)-1-(4-dimethylaminomethylphenyl)ethyl]-N-hydroxyformamide]: the pIC50 at ADAM17 was 8.14; at ADAM10 it was 7.66.
On the same counts, the results for `CC#CCOc1ccc(S(=O)(=O)CC(c2ccc(CN(CC)CC)cc2)N(O)C=O)cc1` (centres unmarked) [Compound I-1, N-[2-(4-But-2-ynyloxybenzenesulfonyl)-1-(4-diethylaminomethylphenyl)ethyl]-N-hydroxyformamide] are 8.28 and 7.89.
Consider `CC#CCOc1ccc(S(=O)(=O)CC(c2ccc(CNC(=O)c3ccccc3)cc2)N(O)C=O)cc1` (centres unmarked) [Compound I-5, N-{4-[2-(4-But-2-ynyloxybenzenesulfonyl)-1-(formylhydroxyamino)ethyl]benzyl}benzamide], for which the figures for the pIC50 at ADAM17 and at ADAM10 were 8.14 and 7.72, respectively.
For the compound `CC#CCOc1ccc(S(=O)(=O)CC(c2ccc(CN3CCOCC3)cc2)N(O)C=O)cc1` (centres unmarked) [Compound I-6, N-[2-(4-But-2-ynyloxybenzenesulfonyl)-1-(4-morpholin-4-ylmethylphenyl)ethyl]-N-hydroxyformamide], the pIC50 on ADAM17 is 7.74; on ADAM10 it was 7.15.
As for `CC#CCOc1ccc(S(=O)(=O)CC(c2ccc(CNC(=O)COC)cc2)N(O)C=O)cc1` (centres unmarked) [Compound I-3, N-{4-[2-(4-But-2-ynyloxybenzenesulfonyl)-1-(formylhydroxyamino)ethyl]benzyl}-2-methoxyacetamide], the values for the pIC50 at ADAM17 and on ADAM10 were 8.09 and 7.38, respectively.
Turning to `CCC#CCOc1ccc(S(=O)(=O)CC(c2ccc(CN3CCOCC3)cc2)N(O)C=O)cc1` (centres unmarked) [Compound I-7, N-Hydroxy-N-[1-(4-morpholin-4-ylmethylphenyl)-2-(4-pent-2-ynyloxybenzenesulfonyl)ethyl]formamide], the values for the pIC50 at ADAM17 and at ADAM10 were 7.26 and 7.05, respectively.
Consider `CC#CCOc1ccc(S(=O)(=O)CC(c2ccc(CNS(C)(=O)=O)cc2)N(O)C=O)cc1` (centres unmarked) [Compound I-4, N-{4-[2-(4-But-2-ynyloxybenzenesulfonyl)-1-(formylhydroxyamino)ethyl]benzyl}methanesulfonamide], for which the pIC50 on ADAM17 is 8.24; at ADAM10, 7.40.
